Where two headings read alike, the source gives them in different places.
How the values were obtained:
[1] = target: GLP-1R (Homo sapiens, UniProt P43220); assay: HitHunter cAMP assay (GLP-1R); format: cell-based; conditions: for Emax: read-out: (Emax) GLP-1R
Summary of the method: (§1)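 Suspension cells expressing each receptor (10,000 per well) in HBSS with 10 mM HEPES, 625 μM IBMX and 0.2% BSA were treated with a 22-point 2-fold agonist series in duplicate for 30 minutes at room temperature. cAMP was detected by antibody immunocompetition with luminescence read after overnight incubation.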

[2] = target: T1, GIP-R (Homo sapiens, UniProt P48546); assay: HitHunter cAMP assay (GIP-R); format: cell-based; conditions: for Emax: read-out: (Emax) GIP-R
T1 sequence (P48546 22-466): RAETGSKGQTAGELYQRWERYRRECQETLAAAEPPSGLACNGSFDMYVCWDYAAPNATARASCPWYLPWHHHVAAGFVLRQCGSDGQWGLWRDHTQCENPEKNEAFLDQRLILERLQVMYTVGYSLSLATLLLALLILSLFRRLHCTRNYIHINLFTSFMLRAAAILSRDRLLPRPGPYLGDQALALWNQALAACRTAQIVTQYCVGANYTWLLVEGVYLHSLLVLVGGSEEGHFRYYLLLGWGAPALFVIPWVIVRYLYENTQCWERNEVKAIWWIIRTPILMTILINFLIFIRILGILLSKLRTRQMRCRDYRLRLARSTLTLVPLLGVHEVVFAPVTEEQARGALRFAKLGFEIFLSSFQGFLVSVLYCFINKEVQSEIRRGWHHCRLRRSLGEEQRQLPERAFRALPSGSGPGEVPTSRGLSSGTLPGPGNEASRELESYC
Summary of the method: as §1

[3] = Table 3, cAMP, read-out: EC50 GLP-1R/nM
[4] = Table 3A, cAMP, read-out: EC50 GLP-1R/nM
[5] = Table 3, cAMP, read-out: EC50 GIP-R/nM
[6] = Table 3A, cAMP, read-out: EC50 GIP-R/nM
[7] = read-out: (Emax) GIP-R at 1 μM, Table 3, cAMP

GLP-1R, sequence (P43220 24-463): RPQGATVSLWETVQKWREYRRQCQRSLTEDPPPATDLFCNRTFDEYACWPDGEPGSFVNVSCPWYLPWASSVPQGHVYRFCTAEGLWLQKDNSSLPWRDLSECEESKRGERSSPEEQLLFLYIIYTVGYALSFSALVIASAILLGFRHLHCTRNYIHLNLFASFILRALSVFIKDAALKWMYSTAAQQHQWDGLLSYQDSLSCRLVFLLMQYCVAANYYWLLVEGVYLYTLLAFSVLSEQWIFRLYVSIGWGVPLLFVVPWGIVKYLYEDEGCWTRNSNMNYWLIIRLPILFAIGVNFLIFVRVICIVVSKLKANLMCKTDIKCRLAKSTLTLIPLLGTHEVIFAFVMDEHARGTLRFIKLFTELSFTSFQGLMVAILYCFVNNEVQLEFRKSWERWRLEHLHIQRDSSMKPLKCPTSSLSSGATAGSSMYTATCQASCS

SMILES: CC[C@H](C)[C@H](NC(=O)[C@H](CO)NC(=O)[C@H](Cc1ccc(O)cc1)NC(=O)[C@H](CC(=O)O)NC(=O)[C@H](CO)NC(=O)[C@@H](NC(=O)[C@H](Cc1ccccc1)NC(=O)[C@@H](NC(=O)CNC(=O)[C@H](CCC(=O)O)NC(=O)CSCC(=O)NCCN1C(=O)CN(C)C1=O)[C@@H](C)O)[C@@H](C)O)C(=O)N[C@@H](Cc1ccc(O)cc1)C(=O)N[C@@H](CC(C)C)C(=O)N[C@@H](CC(=O)O)C(=O)N[C@@H](CCCCN)C(=O)N[C@@H](CCC(N)=O)C(=O)N[C@@H](C)C(=O)N[C@@H](C)C(=O)NC(C)(C)C(=O)N[C@@H](CCC(=O)O)C(=O)N[C@@H](Cc1ccccc1)C(=O)N[C@H](C(=O)N[C@@H](CC(N)=O)C(=O)N[C@@H](Cc1c[nH]c2ccccc12)C(=O)N[C@@H](CC(C)C)C(=O)N[C@@H](CC(C)C)C(=O)N[C@@H](C)C(=O)NCC(=O)NCC(=O)N1CCC[C@H]1C(=O)N[C@@H](CO)C(=O)N[C@@H](CO)C(=O)NCC(=O)N[C@@H](C)C(=O)N1CCC[C@H]1C(=O)N1CCC[C@H]1C(=O)N1CCC[C@H]1C(=O)N[C@@H](CO)C(=O)N[C@@H](CCCCN)C(N)=O)C(C)C [Compound 112]
- Emax ([1]; Table 3, cAMP): 94%
- EC50 [1, 3]: 10 to 100 nM
- Emax ([1]; Table 3A, cAMP): 94%
- EC50 [1, 4]: 10 to 100 nM
- EC50 [2, 5]: 10 to 100 nM
- EC50 [2, 6]: 10 to 100 nM
- Emax at 1 µM [2, 7]: 26%
- Emax at 1 µM ([2]; read-out: (Emax) GIP-R at 1 μM, Table 3A, cAMP): 26%

SMILES: CC[C@H](C)[C@H](NC(=O)[C@H](CO)NC(=O)[C@H](Cc1ccc(O)cc1)NC(=O)[C@H](CC(=O)O)NC(=O)[C@H](CO)NC(=O)[C@@H](NC(=O)[C@H](Cc1ccccc1)NC(=O)[C@@H](NC(=O)CNC(=O)[C@H](CCC(=O)O)NC(=O)CSCC(=O)NCCN1C(=O)CC(C)CC1=O)[C@@H](C)O)[C@@H](C)O)C(=O)N[C@@H](Cc1ccc(O)cc1)C(=O)N[C@@H](CC(C)C)C(=O)N[C@@H](CC(=O)O)C(=O)N[C@@H](CCCCN)C(=O)N[C@@H](CCC(N)=O)C(=O)N[C@@H](C)C(=O)N[C@@H](C)C(=O)NC(C)(C)C(=O)N[C@@H](CCC(=O)O)C(=O)N[C@@H](Cc1ccccc1)C(=O)N[C@H](C(=O)N[C@@H](CC(N)=O)C(=O)N[C@@H](Cc1c[nH]c2ccccc12)C(=O)N[C@@H](CC(C)C)C(=O)N[C@@H](CC(C)C)C(=O)N[C@@H](C)C(=O)NCC(=O)NCC(=O)N1CCC[C@H]1C(=O)N[C@@H](CO)C(=O)N[C@@H](CO)C(=O)NCC(=O)N[C@@H](C)C(=O)N1CCC[C@H]1C(=O)N1CCC[C@H]1C(=O)N1CCC[C@H]1C(=O)N[C@@H](CO)C(=O)N[C@@H](CCCCN)C(N)=O)C(C)C [Compound 113]
- EC50 ([1]; EC50 GLP-1R/nM, Table 3, cAMP): 10 to 100 nM
- EC50 ([1]; EC50 GLP-1R/nM, Table 3A, cAMP): 10 to 100 nM
- Emax ([1]; Table 3, cAMP): 89%
- Emax ([1]; Table 3A, cAMP): 89%
- EC50 ([2]; EC50 GIP-R/nM, Table 3, cAMP): 10 to 100 nM
- EC50 ([2]; EC50 GIP-R/nM, Table 3A, cAMP): 10 to 100 nM
- Emax ([2]; Table 3, cAMP): 52%
- Emax ([2]; Table 3A, cAMP): 52%

SMILES: CCCCCCCCCCCCCCCC(=O)N[C@@H](CCC(=O)NCCCC[C@H](NC(=O)[C@H](CO)NC(=O)[C@@H]1CCCN1C(=O)[C@@H]1CCCN1C(=O)[C@@H]1CCCN1C(=O)[C@H](C)NC(=O)CNC(=O)[C@H](CO)NC(=O)[C@H](CO)NC(=O)[C@@H]1CCCN1C(=O)CNC(=O)CNC(=O)[C@H](C)NC(=O)[C@H](CC(C)C)NC(=O)[C@H](CC(C)C)NC(=O)[C@H](Cc1c[nH]c2ccccc12)NC(=O)[C@H](CC(N)=O)NC(=O)[C@@H](NC(=O)[C@H](Cc1ccccc1)NC(=O)[C@H](CCC(=O)O)NC(=O)C(C)(C)NC(=O)[C@H](C)NC(=O)[C@H](C)NC(=O)[C@H](CCC(N)=O)NC(=O)[C@H](CCCCN)NC(=O)[C@H](CC(=O)O)NC(=O)[C@H](CC(C)C)NC(=O)[C@H](Cc1ccc(O)cc1)NC(=O)[C@@H](NC(=O)[C@H](CO)NC(=O)[C@H](Cc1ccc(O)cc1)NC(=O)[C@H](CC(=O)O)NC(=O)[C@H](CO)NC(=O)[C@@H](NC(=O)[C@H](Cc1ccccc1)NC(=O)[C@@H](NC(=O)CNC(=O)[C@H](CCC(=O)O)NC(=O)CCNC(=O)CCCN1C(=O)c2ccccc2C1=O)[C@@H](C)O)[C@@H](C)O)[C@@H](C)CC)C(C)C)C(N)=O)C(=O)O [Compound 115]
- Emax ([1]; Table 3, cAMP): 91%
- EC50 [1, 3]: 1 to 10 nM
- Emax ([1]; Table 3A, cAMP): 91%
- EC50 [1, 4]: 1 to 10 nM
- Emax ([2]; Table 3, cAMP): 67%
- EC50 [2, 5]: 1 to 10 nM
- Emax ([2]; Table 3A, cAMP): 67%
- EC50 [2, 6]: 1 to 10 nM

SMILES: CC[C@H](C)[C@H](NC(=O)[C@H](CO)NC(=O)[C@H](Cc1ccc(O)cc1)NC(=O)[C@H](CC(=O)O)NC(=O)[C@H](CO)NC(=O)[C@@H](NC(=O)[C@H](Cc1ccccc1)NC(=O)[C@@H](NC(=O)CNC(=O)[C@H](CCC(=O)O)NC(=O)CSCC(=O)NCCN1C(=O)CCC1=O)[C@@H](C)O)[C@@H](C)O)C(=O)N[C@@H](Cc1ccc(O)cc1)C(=O)N[C@@H](CC(C)C)C(=O)N[C@@H](CC(=O)O)C(=O)N[C@@H](CCCCN)C(=O)N[C@@H](CCC(N)=O)C(=O)N[C@@H](C)C(=O)N[C@@H](C)C(=O)NC(C)(C)C(=O)N[C@@H](CCC(=O)O)C(=O)N[C@@H](Cc1ccccc1)C(=O)N[C@H](C(=O)N[C@@H](CC(N)=O)C(=O)N[C@@H](Cc1c[nH]c2ccccc12)C(=O)N[C@@H](CC(C)C)C(=O)N[C@@H](CC(C)C)C(=O)N[C@@H](C)C(=O)NCC(=O)NCC(=O)N1CCC[C@H]1C(=O)N[C@@H](CO)C(=O)N[C@@H](CO)C(=O)NCC(=O)N[C@@H](C)C(=O)N1CCC[C@H]1C(=O)N1CCC[C@H]1C(=O)N1CCC[C@H]1C(=O)N[C@@H](CO)C(=O)N[C@@H](CCCCN)C(N)=O)C(C)C [Compound 117]
- Emax ([1]; Table 3, cAMP): 92%
- EC50 [1, 3]: 10 to 100 nM
- Emax ([1]; Table 3A, cAMP): 92%
- EC50 [1, 4]: 1 to 10 nM
- Emax ([2]; Table 3, cAMP): 70%
- EC50 [2, 5]: 10 to 100 nM
- Emax ([2]; Table 3A, cAMP): 70%
- EC50 [2, 6]: 10 to 100 nM

SMILES: CC[C@H](C)[C@H](NC(=O)[C@H](CO)NC(=O)[C@H](Cc1ccc(O)cc1)NC(=O)[C@H](CC(=O)O)NC(=O)[C@H](CO)NC(=O)[C@@H](NC(=O)[C@H](Cc1ccccc1)NC(=O)[C@@H](NC(=O)CNC(=O)[C@H](CCC(=O)O)NC(=O)CSCC(=O)NCCn1ccc(C(F)(F)F)cc1=O)[C@@H](C)O)[C@@H](C)O)C(=O)N[C@@H](Cc1ccc(O)cc1)C(=O)N[C@@H](CC(C)C)C(=O)N[C@@H](CC(=O)O)C(=O)N[C@@H](CCCCN)C(=O)N[C@@H](CCC(N)=O)C(=O)N[C@@H](C)C(=O)N[C@@H](C)C(=O)NC(C)(C)C(=O)N[C@@H](CCC(=O)O)C(=O)N[C@@H](Cc1ccccc1)C(=O)N[C@H](C(=O)N[C@@H](CC(N)=O)C(=O)N[C@@H](Cc1c[nH]c2ccccc12)C(=O)N[C@@H](CC(C)C)C(=O)N[C@@H](CC(C)C)C(=O)N[C@@H](C)C(=O)NCC(=O)NCC(=O)N1CCC[C@H]1C(=O)N[C@@H](CO)C(=O)N[C@@H](CO)C(=O)NCC(=O)N[C@@H](C)C(=O)N1CCC[C@H]1C(=O)N1CCC[C@H]1C(=O)N1CCC[C@H]1C(=O)N[C@@H](CO)C(=O)N[C@@H](CCCCN)C(N)=O)C(C)C [Compound 121]
- Emax [1]: 90%
- Emax [2]: 27%

SMILES: CC[C@H](C)[C@H](NC(=O)[C@H](CO)NC(=O)[C@H](Cc1ccc(O)cc1)NC(=O)[C@H](CC(=O)O)NC(=O)[C@H](CO)NC(=O)[C@@H](NC(=O)[C@H](Cc1ccccc1)NC(=O)[C@@H](NC(=O)CNC(=O)[C@H](CCC(=O)O)NC(=O)CC(C)(C)CC(=O)NCCN1C(=O)CSC1=O)[C@@H](C)O)[C@@H](C)O)C(=O)N[C@@H](Cc1ccc(O)cc1)C(=O)N[C@@H](CC(C)C)C(=O)N[C@@H](CC(=O)O)C(=O)N[C@@H](CCCCN)C(=O)N[C@@H](CCC(N)=O)C(=O)N[C@@H](C)C(=O)N[C@@H](C)C(=O)NC(C)(C)C(=O)N[C@@H](CCC(=O)O)C(=O)N[C@@H](Cc1ccccc1)C(=O)N[C@H](C(=O)N[C@@H](CC(N)=O)C(=O)N[C@@H](Cc1c[nH]c2ccccc12)C(=O)N[C@@H](CC(C)C)C(=O)N[C@@H](CC(C)C)C(=O)N[C@@H](C)C(=O)NCC(=O)NCC(=O)N1CCC[C@H]1C(=O)N[C@@H](CO)C(=O)N[C@@H](CO)C(=O)NCC(=O)N[C@@H](C)C(=O)N1CCC[C@H]1C(=O)N1CCC[C@H]1C(=O)N1CCC[C@H]1C(=O)N[C@@H](CO)C(=O)N[C@@H](CCCCN)C(N)=O)C(C)C [Compound 122]
- Emax ([1]; Table 3, cAMP): 91%
- EC50 [1, 3]: 1 to 10 nM
- Emax ([1]; Table 3A, cAMP): 91%
- EC50 [1, 4]: 1 to 10 nM
- EC50 [2, 5]: > 1000 nM
- EC50 [2, 6]: > 1000 nM
- Emax at 1 µM [2, 7]: < 1%

— patent US20260176320A1, “MODULATORS OF G-PROTEIN COUPLED RECEPTORS” (priority 2018, published 2026)
